Data published in BindingDB's records for patent WO2022076495 (MERCK SHARP & DOHME CORP., 2022).
Values joined by “and” are separate entries in the source; they are usually repeats but may differ in a detail not shown here. Identical values can stand only once.

target: T1, Diacylglycerol O-acyltransferase 2 (Homo sapiens, UniProt Q96PD7); experiment: DGAT2 enzymatic activity assay
T1 sequence (Q96PD7 whole entry): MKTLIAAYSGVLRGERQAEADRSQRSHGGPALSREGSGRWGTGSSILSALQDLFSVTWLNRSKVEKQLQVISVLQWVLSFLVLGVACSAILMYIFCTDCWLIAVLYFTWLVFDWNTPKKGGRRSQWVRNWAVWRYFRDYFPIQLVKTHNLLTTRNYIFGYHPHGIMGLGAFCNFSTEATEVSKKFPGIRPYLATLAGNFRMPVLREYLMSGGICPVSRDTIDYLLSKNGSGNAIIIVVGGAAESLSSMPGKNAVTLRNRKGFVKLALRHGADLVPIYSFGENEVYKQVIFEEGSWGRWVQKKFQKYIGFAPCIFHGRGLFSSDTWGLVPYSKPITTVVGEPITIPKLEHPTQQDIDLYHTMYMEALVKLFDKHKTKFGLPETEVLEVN
Procedure: DGAT2 activity was determined by measuring the amount of enzymatic product 13Ci8-triolein (13C-l,2,3-Tri(cis-9-octadecenoyl)glycerol) using the membrane prep mentioned above. The assay was carried out in ABgene 384-well assay plates in a final volume of 25 pL at rt. The assay mixture contained the following: assay buffer (100 mM Tris Cl, pH 7.0, 20 mM MgCl2, 5% ethanol), 25 pM of di olein, 5 μM of 13C oleoyl-CoA and 8 ng/pL of DGAT2 membrane.

Row | Compound | IC50
1 | CC1(NC(=O)c2ccc3c(c2)n(S(=O)(=O)c2ccccc2)c(=O)n3-c2cccc(OC(F)F)c2)CCS(=O)(=O)CC1 [WO2022076495, EXAMPLE 86] | > 9990 nM
2 | C[C@@H](n1c(=O)n(-c2cccc(OC(F)(F)C(F)F)c2)c2cc(F)c(C(=O)NC3(C)CCS(=O)(=O)CC3)cc21)C(C)(C)O [WO2022076495, EXAMPLE 77b] | 9.8 nM
3 | CC(C)n1c(=O)n(-c2cccc(OC(F)F)c2)c2ccc(C(=O)NCC3(O)CCOC3)cc21 (stereo unspecified) [WO2022076495, EXAMPLE 62] | > 9990 nM
4 | C[C@@H](C(F)F)n1c(=O)n(-c2cccc(OC(F)F)c2)c2ccc(C(=O)NC3(C)CCS(=O)(=O)CC3)cc21 [WO2022076495, EXAMPLE 45b] | 101 nM
5 | C[C@H](n1c(=O)n(-c2cc(OC(F)(F)F)ccc2F)c2cc(F)c(C(=O)NC3(C)CCS(=O)(=O)CC3)cc21)C(C)(C)O [WO2022076495, EXAMPLE 70a] | 1 nM
6 | CC(C)n1c(=O)n(-c2cccc(OC(F)F)c2)c2cc(F)c(C(=O)N[C@H]3CCCC[C@@H]3O)cc21 [WO2022076495, EXAMPLE 35] | 71 nM
7 | C[C@H](n1c(=O)n(-c2cc(OCC(F)F)ncc2F)c2ccc(C(=O)NC3(C)CCS(=O)(=O)CC3)cc21)C(C)(C)O [WO2022076495, EXAMPLE 72a] | 6.4 nM
8 | C[C@H](n1c(=O)n(-c2cc(OCC(F)F)ccc2F)c2cc(F)c(C(=O)NC3(C)CCS(=O)(=O)CC3)cc21)C(C)(C)O [WO2022076495, EXAMPLE 75a] | 1.5 nM
9 | CCOc1cc(-n2c(=O)n([C@@H](C)C(C)(C)O)c3cc(C(=O)NC4(C)CS(=O)(=O)C4)ccc32)c(F)cn1 [WO2022076495, EXAMPLE 78b] | 13 nM
10 | C[C@H](C(F)F)n1c(=O)n(-c2cccc(OC(F)F)c2)c2ccc(C(=O)NC3(C)CCS(=O)(=O)CC3)cc21 [WO2022076495, EXAMPLE 45a] | 12 nM
11 | C[C@@H](n1c(=O)n(-c2cc(OC(F)(F)F)ccc2F)c2cc(F)c(C(=O)NC3(C)CCS(=O)(=O)CC3)cc21)C(C)(C)O [WO2022076495, EXAMPLE 70b] | 30 nM
12 | C[C@H](n1c(=O)n(-c2cccc(OC(F)(F)C(F)F)c2)c2ccc(C(=O)NC3(C)CS(=O)(=O)C3)cc21)C(C)(C)O [WO2022076495, EXAMPLE 76b] | 7.9 nM
13 | C[C@H](n1c(=O)n(-c2cc(OCC(F)F)ncc2F)c2cc(F)c(C(=O)NC3(C)CCS(=O)(=O)CC3)cc21)C(C)(C)O [WO2022076495, EXAMPLE 74a] | 6.1 nM
14 | CC(C)n1c(=O)n(-c2cc(OC(F)F)ncc2F)c2cc(F)c(C(=O)NC3(C)CCS(=O)(=O)CC3)cc21 [WO2022076495, EXAMPLE 115] | 4.1 nM
15 | CC(C)n1c(=O)n(-c2cc(OC(F)(F)C(F)F)ncc2F)c2cc(F)c(C(=O)NC3(C)CCS(=O)(=O)CC3)cc21 [WO2022076495, EXAMPLE 118] | 5.5 nM
16 | C[C@@H](n1c(=O)n(-c2cc(OCC(F)F)ncc2F)c2cc(F)c(C(=O)NC3(C)CCS(=O)(=O)CC3)cc21)C(C)(C)O [WO2022076495, EXAMPLE 74b] | 6.5 nM
17 | CC(C)n1c(=O)n(-c2cccc(OC(F)(F)C(F)(F)F)c2)c2ccc(C(=O)NC3(C)CS(=O)(=O)C3)cc21 [WO2022076495, EXAMPLE 7] | 16 nM
18 | CC(C)n1c(=O)n(-c2cccc(OC(F)F)c2)c2cc(F)c(C(=O)N[C@H]3CCCC(F)(F)[C@H]3O)cc21 [WO2022076495, EXAMPLE 30] | 31 nM
19 | CC(n1c(=O)n(-c2cc(OC(F)F)ccc2F)c2ccc(C(=O)NC3(C)CS(=O)(=O)C3)cc21)C(C)(C)O (stereo unspecified) [WO2022076495, EXAMPLE 65] | 0.7 nM
20 | C[C@@H](n1c(=O)n(-c2cccc(OC(F)F)c2)c2ccc(C(=O)NC3(C)CCS(=O)(=O)CC3)cc21)C(C)(C)O [WO2022076495, EXAMPLE 67b] | 211 nM
21 | C[C@@H](n1c(=O)n(-c2cc(OC(F)F)ccc2F)c2ccc(C(=O)NC3(C)CCS(=O)(=O)CC3)cc21)C(C)(C)O [WO2022076495, EXAMPLE 66b] | 17 nM
22 | CCOc1cc(-n2c(=O)n([C@H](C)C(C)(C)O)c3cc(C(=O)NC4(C)CCS(=O)(=O)CC4)ccc32)c(F)cn1 [WO2022076495, EXAMPLE 69b] | 3.9 nM
23 | C[C@H](n1c(=O)n(-c2cc(OC(F)F)ccc2F)c2ccc(C(=O)NC3(C)CCS(=O)(=O)CC3)cc21)C(C)(C)O [WO2022076495, EXAMPLE 66a] | 1.1 nM
24 | CC(C)n1c(=O)n(-c2cccc(OC(F)F)c2)c2cc(F)c(C(=O)NC(C)C(C)(C)O)cc21 (stereo unspecified) [WO2022076495, EXAMPLE 27] | > 10000 nM
25 | C[C@H](n1c(=O)n(-c2cc(OC(F)(F)F)ccc2F)c2ccc(C(=O)NC3(C)CCS(=O)(=O)CC3)cc21)C(C)(C)O [WO2022076495, EXAMPLE 71a] | 71 nM
26 | C[C@H](n1c(=O)n(-c2cc(OCC(F)F)ccc2F)c2ccc(C(=O)NC3(C)CCS(=O)(=O)CC3)cc21)C(C)(C)O [WO2022076495, EXAMPLE 73a] | 2.6 nM

Row | Compound | IC50
27 | CC1(NC(=O)c2cc3c(cc2F)n(-c2cccc(OC(F)F)c2)c(=O)n3C2CCOCC2)CS(=O)(=O)C1 [WO2022076495, EXAMPLE 36] | 19 nM
28 | CC(C)n1c(=O)n(-c2cccc(OC(F)F)c2)c2cc(F)c(C(=O)NC3(C)CS(=O)(=O)C3)cc21 [WO2022076495, EXAMPLE 24] | 66 nM and 54 nM
29 | CC1(NC(=O)c2cc3c(cc2F)n(-c2cccc(OC(F)F)c2)c(=O)n3CC(F)(F)F)CS(=O)(=O)C1 [WO2022076495, EXAMPLE 43] | 202 nM
30 | CCOc1cc(-n2c(=O)n([C@@H](C)C(C)(C)O)c3cc(C(=O)NC4(C)CCS(=O)(=O)CC4)ccc32)c(F)cn1 [WO2022076495, EXAMPLE 69a] | 9.7 nM
31 | CC(C)n1c(=O)n(-c2cccc(OC(F)F)c2)c2ncc(C(=O)NC3(C)CCS(=O)(=O)CC3)cc21 [WO2022076495, EXAMPLE 88] | 62 nM
32 | CC(C)n1c(=O)n(-c2cccc(OC(F)F)c2)c2cc(F)c(C(=O)N[C@H]3CCC[C@@H]3O)cc21 [WO2022076495, EXAMPLE 28] | 779 nM
33 | CC[C@H](C)n1c(=O)n(-c2cccc(OC(F)F)c2)c2ccc(C(=O)NC3(C)CS(=O)(=O)C3)cc21 [WO2022076495, EXAMPLE 46b] | 92 nM
34 | C[C@H](n1c(=O)n(-c2cccc(OCC(F)F)c2)c2ccc(C(=O)NC3(C)CCS(=O)(=O)CC3)cc21)C(C)(C)O [WO2022076495, EXAMPLE 68a] | 4.1 nM
35 | C[C@@H](n1c(=O)n(-c2cc(OCC(F)F)ncc2F)c2ccc(C(=O)NC3(C)CCS(=O)(=O)CC3)cc21)C(C)(C)O [WO2022076495, EXAMPLE 72b] | 6.6 nM
36 | C[C@@H](n1c(=O)n(-c2cccc(OCC(F)F)c2)c2ccc(C(=O)NC3(C)CCS(=O)(=O)CC3)cc21)C(C)(C)O [WO2022076495, EXAMPLE 68b] | 1.8 nM
37 | CC(C)n1c(=O)n(-c2cccc(OC(F)F)c2)c2cc(F)c(C(=O)N[C@H]3CCOC[C@@H]3O)cc21 [WO2022076495, EXAMPLE 29] | 1260 nM
38 | C[C@@H](n1c(=O)n(-c2cc(OC(F)(F)F)ccc2F)c2ccc(C(=O)NC3(C)CCS(=O)(=O)CC3)cc21)C(C)(C)O [WO2022076495, EXAMPLE 71b] | 5.4 nM
39 | C[C@@H](n1c(=O)n(-c2cccc(OC(F)(F)C(F)F)c2)c2ccc(C(=O)NC3(C)CS(=O)(=O)C3)cc21)C(C)(C)O [WO2022076495, EXAMPLE 76a] | 80 nM
40 | CCOc1cc(-n2c(=O)n(C(C)C)c3cc(C(=O)NC4(C)CS(=O)(=O)C4)ccc32)c(F)cn1 [WO2022076495, EXAMPLE 16] | 31 nM
41 | C[C@@H](n1c(=O)n(-c2cc(OCC(F)F)ccc2F)c2cc(F)c(C(=O)NC3(C)CCS(=O)(=O)CC3)cc21)C(C)(C)O [WO2022076495, EXAMPLE 75b] | 2.4 nM
42 | CCn1c(=O)n(-c2cccc(OC(F)F)c2)c2cc(F)c(C(=O)NC3(C)CS(=O)(=O)C3)cc21 [WO2022076495, EXAMPLE 40] | 194 nM
43 | CC(C)n1c(=O)n(-c2cc(OCC(F)F)ncc2F)c2ccc(C(=O)NC3(C)CCS(=O)(=O)CC3)cc21 [WO2022076495, EXAMPLE 15] | 6.7 nM
44 | CC(C)(O)Cn1c(=O)n(-c2cccc(OC(F)F)c2)c2ccc(C(=O)NC3(C)CS(=O)(=O)C3)cc21 [WO2022076495, EXAMPLE 64] | 37 nM
45 | C[C@H](n1c(=O)n(-c2cccc(OC(F)F)c2)c2ccc(C(=O)NC3(C)CCS(=O)(=O)CC3)cc21)C(C)(C)O [WO2022076495, EXAMPLE 67a] | 1.6 nM
46 | C[C@H](n1c(=O)n(-c2cccc(OC(F)(F)C(F)F)c2)c2cc(F)c(C(=O)NC3(C)CCS(=O)(=O)CC3)cc21)C(C)(C)O [WO2022076495, EXAMPLE 77a] | 5.6 nM
47 | CC(C)n1c(=O)n(-c2cc(OC(F)F)ccc2F)c2ncc(C(=O)NC3(C)CCS(=O)(=O)CC3)cc21 [WO2022076495, EXAMPLE 103] | 74 nM
48 | C[C@@H](n1c(=O)n(-c2cc(OCC(F)F)ccc2F)c2ccc(C(=O)NC3(C)CCS(=O)(=O)CC3)cc21)C(C)(C)O [WO2022076495, EXAMPLE 73b] | 3.3 nM
49 | CC[C@@H](C)n1c(=O)n(-c2cccc(OC(F)F)c2)c2ccc(C(=O)NC3(C)CS(=O)(=O)C3)cc21 [WO2022076495, EXAMPLE 46a] | 81 nM
50 | CCOc1cc(-n2c(=O)n([C@H](C)C(C)(C)O)c3cc(C(=O)NC4(C)CS(=O)(=O)C4)ccc32)c(F)cn1 [WO2022076495, EXAMPLE 78a] | 123 nM
51 | CC(C)n1c(=O)n(-c2cccc(OC(F)F)c2)c2ccc(C(=O)NC3(C)CS(=O)(=O)C3)cc21 [WO2022076495, EXAMPLE 12] | 88 nM and 122 nM
